The text below walks through data of US12138277B2, “Oligosaccharides for use in the treatment of Parkinson's disease” (UNIVERSITA' DEGLI STUDI DI MILANO, priority 2018, dated 2024).

Data set [1] relates to Neuroblastoma cells of murine origin. In words: Proteomic analysis by mass spectroscopy of treated neuroblastoma cells. The format is cell-based. Conditions: after 24 h of treatment. On the procedure: Neuroblastoma cells of murine origin were treated with β-Gal-(1-3)-β-GalNAc-(1-4)-[α-Neu5Ac-(2-3)]-β-Gal-(1-4)-Glc to induce neuronal differentiation (Chiricozzi et al. 2017 Journal of Neurochemistry 143:645-659). After 24 h of treatment, the cells were collected for protein analysis. […] These proteins are involved in cellular signaling of i) excitotoxicity neuroprotection; ii) inhibition of oxidative stress; iii) inhibition of microglia hyperactivation and downregulation of proinflammatory molecules.

The next data set relates to Neuroblastoma cells. In words: Excitotoxicity protection: DCB-induced death of neuroblastoma cells. It counts as cell-based. On the procedure:
In Parkinson's disease, and more generally in the degenerative diseases of the central nervous system, there is a strong activation of the immune system, oxidative stress and excitotoxicity. Neuroblastoma cells were then treated with DCB (3′,4′-Dichlorobenzamyl hydrochloride) to induce an accumulation of intracellular calcium, an experimental strategy which mimics glutamate-induced excitotoxicity.

Data set [2] can be described thus: Crossing of the blood-brain barrier: radioactivity in brain areas after administration of tritiated oligosaccharide. It counts as in vivo, Wild-type mice (C57BL/6). The note with it: intraperitoneal, subcutaneous or intravenous administration; 10 μg tritiated oligosaccharide; 1 hour and 22 hours after administration. On the procedure:
Wild-type mice (C57BL/6) of about 3 months were treated with β-[6-^3H]Gal-(1-3)-β-GalNAc-(1-4)-[α-Neu5Ac-(2-3)]-β-Gal-(1-4)-Glc.
Administration was performed intraperitoneally, subcutaneously or intravenously (Orlando P. et al 1979, Pharmacological Research Communications 11:759-773). For the intravenous route, the injection was performed in the central vein of the tail. The treatment was carried out with 10 μg of tritiated oligosaccharide (10 μCi) dissolved in 0.1 ml of saline. For each experimental group 5 animals were used. 1 hour and 22 hours after administration, the animals were sacrificed by cardiac perfusion (10 min), in order to remove the blood, especially in the central nervous system. The brain was removed and the different areas (cortex, hippocampus, substantia nigra, cerebellum, trunk) were identified and separated. Tissue samples were lyophilized, homogenized and the relative associated radioactivity was detected at the β-counter (Orlando et al 1979, Pharmacological Research Communication 11:759-773).

`CC(=O)N[C@H]1[C@H](O[C@@H]2[C@H](O[C@]3(C(=O)O)C[C@H](O)[C@@H](NC(C)=O)[C@H]([C@H](O)[C@H](O)CO)O3)[C@@H](O)[C@H](O[C@H]3[C@H](O)[C@@H](O)C(O)O[C@@H]3CO)O[C@@H]2CO)O[C@H](CO)[C@H](O)[C@@H]1O[C@@H]1O[C@H](CO)[C@H](O)[C@H](O)[C@H]1O` (stereo partly drawn) [β-Gal-(1-3)-β-GalNAc-(1-4)-[α-Neu5Ac-(2-3)]-β-Gal-(1-4)-Glc]: in data set [1], the “number of proteins whose expression is induced” value came out at 320. The “toxicity of the oligosaccharide to cells” value with Neuroblastoma cells (neuroblastoma cells) is on record as “without being toxic to cells”. In addition, in the data set with Neuroblastoma cells (neuroblastoma cells treated with DCB (3′,4′-Dichlorobenzamyl hydrochloride)), the “protection of cells from DCB-induced death” value is listed as “able to protect cells from DCB-induced death”.

For “β-[6-^3H]Gal-(1-3)-β-GalNAc-(1-4)-[α-Neu5Ac-(2-3)]-β-Gal-(1-4)-Glc”, in data set [2], the “oligosaccharide reaching the central nervous system / crossing the blood-brain barrier (associated radioactivity in brain areas)” value is recorded as “a fair amount of the oligosaccharide is able to reach the central nervous system, including the substantia nigra, within a few hours”.
